Measured values as given in US11911467B2, “Composition comprising PIC for treatment of cancer” (Yisheng Biopharma (Singapore) PTE LTD, priority 2016, dated 2024).
Values joined by “and” are separate entries in the source; they are usually repeats but may differ in a detail not shown here. Identical values can stand only once.

Experiments:
S180 tumor = tested on: S180 tumor; set-up: species or system female Balb/c mice; conditions: mouse, in vivo
[1] = tested on: Ehrlich Ascites Cancer (EAC) tumor; set-up: species or system female Kunming mice; conditions: mouse, in vivo
[2] = tested on: LL/2 murine Lewis lung tumor
4T1 murine breast tumor = 4T1 murine breast tumor model (Example 3); type: in vivo, female Balb/c mice
Procedure: 1.1 Female Balb/c mice (6 weeks old, body weight 17.2±0.1 g) were obtained from Shanghai SIPPR-BK Laboratory Animal Co. Ltd.
The murine breast cancer cancer cell line 4T1 was obtained from American Type Culture Collection (ATCC), and maintained by HD Biosciences. Cells were maintained in DMEM with 10% fetal bovine serum in a atmosphere of 5% CO2 at 37° C. Passaging ratio was between 1:5 and 1:8, at the frequency of 3 to 4 times per week.
4T1 murine breast tumor model was established in female Balb/c mice by subcutaneous inoculation with 1×10^6 cells per animal. The rate of tumor formation was 100%. Three days post cell inoculation, the cell inoculated mice were randomly sorted into treatment groups by weight. Animals in each group were administered according to Table 2.
There were 4 groups: Vehicle group, Docetaxel group, YS-ON-001 low dose group, and YS-ON-001 high dose group.
2. The Studies were Terminated when the Average Tumor Volume in Vehicle Group Reached 2500 mm^3
3. At the end of study, the tumor mass was removed and photographed. The tumor weight was recorded. The thymus and spleen was removed and weighed. And then, the organ index was calculated.
III. Observational Indices: Same as in Example 2 Section III.
Data were reported as Mean±SEM. Comparison between groups was analysed using ANOVA.

[3] = Cisplatin 5 mg/kg i.v. QW, total 3 dosing, end of study
[4] = Docetaxel 10 mg/kg i.v. QW, total 3 dosing, end of study

O=P1(N(CCCl)CCCl)NCCCO1 (centres unmarked) [CTX, Cyclophosphamide]
Tumor growth (tumor volume) compared with saline control group (S180 tumor): significantly inhibited the tumor growth | Tumor weight compared with saline control group (S180 tumor): significantly decreased tumor weight | Day on which all mice were dead [1]: 30 days | Day on which death was first observed [1]: 27 days | Median duration (to death) [1]: 29 days and 34.5 days

N.N.[Cl][Pt][Cl] [Cisplatin]
Relative tumor proliferation rate T/C [2, 3]: 53.04% | Tumor inhibition rate (tumor weight) [2, 3]: 29.46% | Spleen index compared to vehicle group ([2]; mouse, in vivo): trend of reducing which is not significant | Spleen weight compared to vehicle group ([2]; mouse, in vivo): significantly reduced | Thymus weight and thymus index compared to vehicle group ([2]; mouse, in vivo): significantly reduced | Number of lung metastases compared with vehicle group (B16F10 metastasis tumor; day 15, Cisplatin 5 mg/kg i.v. Q4D, YS-ON-001 200 μg/0.2 mL/mice/dose i.m./s.c. BID, p<0.01): significantly decreased | Spleen weight and spleen index compared with vehicle group (B16F10 metastasis tumor; mouse, in vivo): not affected | Thymus weight and thymus index compared with vehicle group (B16F10 metastasis tumor; mouse, in vivo): significantly decreased

CC(=O)O[C@@]12CO[C@@H]1C[C@H](O)[C@@]1(C)C(=O)[C@H](O)C3=C(C)[C@@H](OC(=O)[C@H](O)[C@@H](NC(=O)OC(C)(C)C)c4ccccc4)C[C@@](O)([C@@H](OC(=O)c4ccccc4)[C@H]21)C3(C)C [Docetaxel]
Relative tumor proliferation rate T/C (4T1 murine breast tumor; [4]): 50.12% | Tumor inhibition rate (tumor weight) (4T1 murine breast tumor; [4]): 35.55% | Body weight compared to vehicle group (4T1 murine breast tumor; Docetaxel 10 mg/kg, Day 8 and Day 13 to end of study, p<0.01): significantly affected | Body weight change compared to vehicle group (4T1 murine breast tumor; Docetaxel: Day 4 to end, two YS-ON-001 groups: Day 4 and Day 15 to end): significantly reduced | Spleen weight compared to vehicle group (4T1 murine breast tumor; end of study, doses of Table 2): significantly reduced | Thymus weight and thymus index compared to vehicle group (4T1 murine breast tumor; end of study, doses of Table 2): significantly reduced | Spleen index compared to vehicle group (4T1 murine breast tumor; end of study, doses of Table 2, YS-ON-001 p<0.01 low dose, p<0.05 high dose): significantly reduced
